PMC12892976, “Alkylation-based optimization of antifungal FPPS inhibitors yields a potent, broad-spectrum lipophilic zoledronate derivative” (mBio, 2025)

Experiments:
Rhizopus oryzae = test: checkerboard drug interaction (FICI, MICc); format: cell-based;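 further: simplified diagonal checkerboard screen pairing antifungals with FPPS inhibitors, FICI calculated under the Loewe additivity model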
Description: (§2) Drug interactions between antifungals and FPPS inhibitors were investigated using a simplified checkerboard diagonal screening method ([45]). […] FICIs were determined according to the Loewe additivity model ([17]).

[1] = tested on: Saccharomyces cerevisiae biofilms; test: biofilm XTT reduction assay (SIC80, SFICI); format: cell-based; conditions: for SICc / SFICI: Saccharomyces cerevisiae
Description: (§3) Biofilms of Cryptococcus were seeded in DMEM, and all other species were seeded in RPMI-1640.

Candida dubliniensis = test: checkerboard drug interaction (FICI, MICc); format: cell-based;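 further: simplified diagonal checkerboard screen pairing antifungals with FPPS inhibitors, FICI calculated under the Loewe additivity model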
Description: as §2

Cryptococcus tetragattii = test: MIC broth microdilution (CLSI); format: cell-based; conditions: Cryptococcus tetragattii WM779
Description: (§4) Antifungal susceptibility was determined by broth microdilution according to the CLSI guidelines described in M27-Ed4 ([16]).

[2] = tested on: Trichophyton rubrum biofilms; test: biofilm XTT reduction assay (SIC80, SFICI); format: cell-based; conditions: for SICc / SFICI: Trichophyton rubrum
Description: as §3

Microsporum canis = test: MIC broth microdilution (CLSI); conditions: Microsporum canis R-232
Description: as §4

[3] = tested on: Candida glabrata biofilms; test: biofilm XTT reduction assay (SIC80, SFICI); format: cell-based; conditions: for SICc / SFICI: Candida glabrata
Description: (§1) […]. […] […].

[4] = tested on: Aspergillus fumigatus biofilms; test: biofilm XTT reduction assay (SIC80, SFICI); format: cell-based; conditions: for SICc / SFICI: Aspergillus fumigatus
Description: as §1

[5] = tested on: Aspergillus flavus biofilms; test: biofilm XTT reduction assay (SIC80, SFICI); format: cell-based; conditions: for SICc / SFICI: Aspergillus flavus
Description: as §1

Candida auris = test: checkerboard drug interaction (FICI, MICc); format: cell-based;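 further: simplified diagonal checkerboard screen pairing antifungals with FPPS inhibitors, with FICI computed under the Loewe additivity model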
Description: as §2

[6] = tested on: Trichophyton interdigitale; test: MIC broth microdilution (CLSI); format: cell-based; conditions: Trichophyton interdigitale R-234
Description: as §4

Fusarium oxysporum = test: checkerboard drug interaction (FICI, MICc); format: cell-based;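 further: simplified diagonal checkerboard screen pairing antifungals with FPPS inhibitors, FICI calculated under the Loewe additivity model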
Description: as §2

Candida parapsilosis = test: MIC broth microdilution (CLSI); format: cell-based; conditions: Candida parapsilosis ATCC 22018
Description: Antifungal susceptibility was determined by broth microdilution according to the CLSI guidelines described in M27-Ed4 ([16]). […] MFC was determined by back-plating drug-treated cultures from MIC broths onto SDA plates. The MFC was defined as the lowest concentration from which no colonies could be cultured.

Aspergillus parafelis = test: checkerboard drug interaction (FICI, MICc);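 further: simplified diagonal checkerboard screen pairing antifungals with FPPS inhibitors, FICI calculated under the Loewe additivity model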
Description: as §2

[7] = tested on: Cryptococcus neoformans biofilms; test: biofilm XTT reduction assay (SIC80, SFICI); conditions: for SICc / SFICI: Cryptococcus neoformans
Description: as §3

[8] = tested on: Cryptococcus bacillisporus; test: MIC broth microdilution (CLSI); format: cell-based; conditions: Cryptococcus bacillisporus NIH179
Description: as §4

CCCCCCCCCCn1cc[n+](CC(O)(P(=O)(O)O)P(=O)(O)O)c1 [10-ZOL, Decyl-zoledronate]
1.5: FICI (Candida auris; 5FC:10-ZOL)
1 µg/mL: MIC / MEC (Microsporum canis) | MIC / MEC [6] | MIC / MEC (Candida parapsilosis)
0.56: SFICI ([7]; KET:10-ZOL)
0.75: SFICI ([1]; FLC:10-ZOL) | SFICI ([4]; ITR:10-ZOL) | SFICI ([5]; KET:10-ZOL) | SFICI ([7]; FLC:10-ZOL)
0.25: bisphosphonate MICc (Candida dubliniensis; with 5FC) | bisphosphonate MICc (Candida dubliniensis; with FLC) | bisphosphonate MICc (Candida auris; with AMB) | bisphosphonate MICc (Fusarium oxysporum; with AMB)
8 µg/mL: SICc ([1]; KET:10-ZOL combination) | SIC80 ([3]; agent alone, Candida glabrata CBS138) | SICc ([7]; KET:10-ZOL combination)
4: bisphosphonate MICc (Fusarium oxysporum; with 5FC) | bisphosphonate MICc (Aspergillus parafelis; with ITR)
0.38–0.50: FICI range (biofilm) ([2]; azoles with 10-ZOL, Trichophyton rubrum biofilms)
64 µg/mL: SIC80 ([1]; agent alone, Saccharomyces cerevisiae S288c) | SIC80 ([2]; biofilm, agent alone, Trichophyton rubrum 213) | SICc ([4]; FLC:10-ZOL combination) | SICc ([5]; ITR:10-ZOL combination)
1.18: FICI (Candida dubliniensis; CAS:10-ZOL)
0.38: SFICI ([2]; biofilm, FLC:10-ZOL) | SFICI ([2]; biofilm, ITR:10-ZOL) | SFICI ([4]; KET:10-ZOL)
0.63: SFICI ([1]; KET:10-ZOL) | SFICI ([3]; FLC:10-ZOL) | SFICI ([4]; FLC:10-ZOL) | SFICI ([5]; FLC:10-ZOL) | SFICI ([7]; ITR:10-ZOL)
2: bisphosphonate MICc (Rhizopus oryzae; with FLC) | bisphosphonate MICc (Rhizopus oryzae; with ITR) | bisphosphonate MICc (Rhizopus oryzae; with KET) | bisphosphonate MICc (Rhizopus oryzae; with VOR) | bisphosphonate MICc (Fusarium oxysporum; with VOR) | bisphosphonate MICc (Aspergillus parafelis; with 5FC) | bisphosphonate MICc (Aspergillus parafelis; with AMB) | bisphosphonate MICc (Aspergillus parafelis; with FLC) | bisphosphonate MICc (Aspergillus parafelis; with VOR)
32 µg/mL: SICc ([1]; FLC:10-ZOL combination) | SICc ([1]; ITR:10-ZOL combination) | SICc ([4]; ITR:10-ZOL combination) | SICc ([5]; KET:10-ZOL combination) | SICc ([7]; FLC:10-ZOL combination)
1.00: SFICI ([1]; ITR:10-ZOL) | SFICI ([3]; ITR:10-ZOL) | SFICI ([5]; ITR:10-ZOL)
0.125: bisphosphonate MICc (Candida dubliniensis; with AMB) | bisphosphonate MICc (Candida dubliniensis; with CAS) | bisphosphonate MICc (Candida dubliniensis; with ITR) | bisphosphonate MICc (Candida dubliniensis; with KET) | bisphosphonate MICc (Candida auris; with ITR)
0.52: FICI (Aspergillus parafelis; FLC:10-ZOL)
128 µg/mL: SIC80 ([4]; agent alone, Aspergillus fumigatus ATCC 204305) | SIC80 ([5]; agent alone, Aspergillus flavus ATCC 204304) | SIC80 ([7]; agent alone, Cryptococcus neoformans H99)
0.43: FICI (Candida dubliniensis; KET:10-ZOL)
0.5 µg/mL: MIC / MEC (Cryptococcus tetragattii)
1.55: FICI (Candida dubliniensis; VOR:10-ZOL)
16 µg/mL: SICc ([2]; biofilm, FLC:10-ZOL combination) | SICc ([2]; biofilm, ITR:10-ZOL combination) | SICc ([2]; biofilm, KET:10-ZOL combination) | SICc ([4]; KET:10-ZOL combination) | SICc ([5]; FLC:10-ZOL combination) | SICc ([7]; ITR:10-ZOL combination)
4 µg/mL: SICc ([3]; FLC:10-ZOL combination) | SICc ([3]; ITR:10-ZOL combination)
1: bisphosphonate MICc (Candida dubliniensis; with VOR) | bisphosphonate MICc (Candida auris; with 5FC) | bisphosphonate MICc (Candida auris; with KET) | bisphosphonate MICc (Candida auris; with VOR) | bisphosphonate MICc (Fusarium oxysporum; with CAS) | bisphosphonate MICc (Fusarium oxysporum; with FLC) | bisphosphonate MICc (Fusarium oxysporum; with ITR) | bisphosphonate MICc (Fusarium oxysporum; with KET) | bisphosphonate MICc (Aspergillus parafelis; with CAS) | bisphosphonate MICc (Aspergillus parafelis; with KET)
2 µg/mL: SICc ([3]; KET:10-ZOL combination) | MIC / MEC [8]
1.03: FICI (Fusarium oxysporum; AMB:10-ZOL)
≥4: FICI (Fusarium oxysporum; 5FC:10-ZOL) | FICI (Fusarium oxysporum; CAS:10-ZOL) | FICI (Aspergillus parafelis; 5FC:10-ZOL) | FICI (Aspergillus parafelis; CAS:10-ZOL)
0.50: SFICI ([2]; biofilm, KET:10-ZOL) | SFICI ([3]; KET:10-ZOL)
0.5: FICI (Candida auris; FLC:10-ZOL) | bisphosphonate MICc (Candida auris; with CAS) | bisphosphonate MICc (Candida auris; with FLC) | FICI (Fusarium oxysporum; VOR:10-ZOL)
